Laboratory results published in patent publication US20060069132A1, “Azolecarboxamide herbicides” (priority 2004, published 2006).

What was measured:
ducksalad = experiment: Test C flooded paddy test; format: in vivo, Heteranthera limosa; settings: for Plant response rating, Ducksalad: visual rating after 12 to 14 days
giant foxtail = experiment: Test A pre-/postemergence herbicide test; format: in vivo, Setaria faberi
Outline: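 Visual injury rating on a 0–100 scale (0 no effect, 100 complete control) versus untreated controls, about ten days after treatment in greenhouse. Pre: directed soil spray onto seeded sandy loam. Post: spray to runoff on plants 2–10 cm tall at one- to two-leaf stage.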

[1] = 62 g ai/ha, scale 0 to 100 (0 no effect, 100 complete control)
[2] = 125 g ai/ha, scale 0 to 100 (0 no effect, 100 complete control)
[3] = 250 g ai/ha, scale of 0 to 100, 0 is no effect, 100 is complete control
[4] = 500 g ai/ha, scale 0 to 100 (0 no effect, 100 complete control)
[5] = Postemergence, 500 g ai/ha, 0 to 100 scale, 0 no effect, 100 complete control
[6] = Postemergence, 2000 g ai/ha, 0 to 100 scale, 0 no effect, 100 complete control
[7] = Preemergence, 500 g ai/ha, visual rating, 0 to 100 scale (0 no effect, 100 complete control)
[8] = Preemergence, 2000 g ai/ha, visual rating, 0 to 100 scale (0 no effect, 100 complete control)
[9] = 125 g ai/ha, scale of 0 to 100, 0 is no effect, 100 is complete control
[10] = preemergence, 500 g ai/ha, visual injury, 0 to 100 scale (0 no effect, 100 complete control)

Compound | Ducksalad plant response rating (ducksalad; [1]) | Ducksalad plant response rating (ducksalad; [2]) | Ducksalad plant response rating (ducksalad; [3]) | Plant response rating, Ducksalad (ducksalad; [4]) | Ducksalad plant response rating (ducksalad; 62 g ai/ha, scale 0 to 100) | Foxtail, Giant plant response rating (giant foxtail; [5]) | Plant response rating, Foxtail, Giant (giant foxtail; [6]) | Foxtail, Giant plant response rating (giant foxtail; [7]) | Foxtail, Giant plant response rating (giant foxtail; [8]) | Ducksalad plant response rating (ducksalad; [9]) | Foxtail, Giant plant response rating (giant foxtail; [10]) | Foxtail, Giant plant response rating (giant foxtail; Postemergence, 125 g ai/ha, 0 to 100 scale, 0 no effect, 100 complete control) | Plant response rating, Foxtail, Giant (giant foxtail; [5]) | Foxtail, Giant plant response rating (giant foxtail; preemergence, 125 g ai/ha, visual injury, 0 to 100 scale (0 no effect, 100 complete control)) | Foxtail, Giant plant response rating (giant foxtail; Preemergence, 2000 g ai/ha, 0 to 100 scale, 0 no effect, 100 complete control) | Plant response rating, Ducksalad (ducksalad; 250 g ai/ha, scale 0 to 100 (0 no effect, 100 complete control))
CCn1nc(C(C)(C)C)cc1C(=O)Nc1cc(C(=O)NCC2CC2)ccn1 [Compound 155] | 45 | 80 | 85 | 90 |  |  |  |  |  |  |  |  |  |  |  | 
CCn1nc(C(C)(C)C)cc1C(=O)Nc1cccc(OS(=O)(=O)CC)c1 [Compound 408] |  | 85 | 95 | 95 | 65 |  |  |  |  |  |  |  |  |  |  | 
CCn1nc(C(C)(C)C)cc1C(=O)Nc1cccc(OCCCF)c1 [Compound 138] | 0 | 20 | 55 | 70 |  | 20 | 35 | 30 | 90 |  |  |  |  |  |  | 
CCn1nc(C(C)(C)C)cc1C(=O)Nc1cccc(C(C)=O)c1 [Compound 122] | 50 |  | 80 | 80 |  | 80 | 80 | 65 | 85 | 80 |  |  |  |  |  | 
CCN(C(C)=O)C(=O)c1ccc(F)c(NC(=O)c2cc(C(C)(C)C)nn2CC)c1 [Compound 413] |  | 45 | 70 | 70 | 15 | 10 | 35 |  | 90 |  | 65 |  |  |  |  | 
CCn1nc(C(C)(C)C)cc1C(=O)Nc1cccc(C(=O)NC(C)C)c1 [Compound 51] | 0 |  | 75 | 85 |  |  |  | 100 |  | 55 |  | 20 | 40 | 70 |  | 
CCc1nc(C(C)(C)C)sc1C(=O)Nc1cccc(C(=O)NC(C)(C)C)n1 [Compound 216] | 0 | 20 | 30 | 40 |  | 20 | 20 |  | 70 |  | 25 |  |  |  |  | 
CCn1nc(C(C)(C)C)cc1C(=O)Nc1cccc(C(=O)NCCF)c1 [Compound 45] | 0 |  |  | 60 |  |  | 95 | 75 |  | 0 |  |  | 90 |  | 100 | 60
CCc1nc(C(C)(C)C)sc1C(=O)Nc1cccc(C(=O)NCCF)c1 [Compound 209] | 65 | 65 | 65 | 80 |  | 15 | 25 |  | 90 |  | 50 |  |  |  |  | 
CCNC(=O)c1ccc(F)c(NC(=O)c2cc(C(C)(C)C)nn2CC)n1 [Compound 278] |  | 0 | 0 | 20 | 0 | 5 | 15 |  | 85 |  | 60 |  |  |  |  | 
C#CCNC(=O)c1cccc(NC(=O)c2sc(C(C)(C)C)nc2CC)c1 [Compound 319] |  | 0 | 45 | 85 | 0 | 0 | 40 |  | 80 |  | 55 |  |  |  |  | 
CCn1nc(C(C)(C)C)cc1C(=O)Nc1cncc(C(=O)N2CC=CC2)n1 [Compound 290] |  | 0 | 45 | 70 | 0 | 15 | 70 |  | 90 |  | 50 |  |  |  |  | 
CCOc1cccc(NC(=O)c2cc(C(C)(C)C)nn2CC)c1 [Compound 136] | 0 | 0 | 45 | 90 |  | 25 | 50 | 60 | 70 |  |  |  |  |  |  | 
C#CCNC(=O)c1cc(NC(=O)c2cc(C(C)(C)C)nn2CC)ccn1 [Compound 283] |  | 0 | 0 | 0 | 0 | 10 | 25 |  | 50 |  | 10 |  |  |  |  | 
CCn1nc(C(C)(C)C)cc1C(=O)Nc1nc(C(=O)N2CC=CC2)ccc1F [Compound 281] |  | 0 | 70 | 85 | 0 | 0 | 25 |  | 75 |  | 60 |  |  |  |  | 
